Target: T1, integrin α4β7 (RPMI8866 human cells adhering to MAdCAM-1) (Homo sapiens, UniProt P13612+P26010)
T1 construct: RMP18866 cells, which express integrin α4β7; host or cells: RPMI8866
T1 sequence (P13612 34-1032): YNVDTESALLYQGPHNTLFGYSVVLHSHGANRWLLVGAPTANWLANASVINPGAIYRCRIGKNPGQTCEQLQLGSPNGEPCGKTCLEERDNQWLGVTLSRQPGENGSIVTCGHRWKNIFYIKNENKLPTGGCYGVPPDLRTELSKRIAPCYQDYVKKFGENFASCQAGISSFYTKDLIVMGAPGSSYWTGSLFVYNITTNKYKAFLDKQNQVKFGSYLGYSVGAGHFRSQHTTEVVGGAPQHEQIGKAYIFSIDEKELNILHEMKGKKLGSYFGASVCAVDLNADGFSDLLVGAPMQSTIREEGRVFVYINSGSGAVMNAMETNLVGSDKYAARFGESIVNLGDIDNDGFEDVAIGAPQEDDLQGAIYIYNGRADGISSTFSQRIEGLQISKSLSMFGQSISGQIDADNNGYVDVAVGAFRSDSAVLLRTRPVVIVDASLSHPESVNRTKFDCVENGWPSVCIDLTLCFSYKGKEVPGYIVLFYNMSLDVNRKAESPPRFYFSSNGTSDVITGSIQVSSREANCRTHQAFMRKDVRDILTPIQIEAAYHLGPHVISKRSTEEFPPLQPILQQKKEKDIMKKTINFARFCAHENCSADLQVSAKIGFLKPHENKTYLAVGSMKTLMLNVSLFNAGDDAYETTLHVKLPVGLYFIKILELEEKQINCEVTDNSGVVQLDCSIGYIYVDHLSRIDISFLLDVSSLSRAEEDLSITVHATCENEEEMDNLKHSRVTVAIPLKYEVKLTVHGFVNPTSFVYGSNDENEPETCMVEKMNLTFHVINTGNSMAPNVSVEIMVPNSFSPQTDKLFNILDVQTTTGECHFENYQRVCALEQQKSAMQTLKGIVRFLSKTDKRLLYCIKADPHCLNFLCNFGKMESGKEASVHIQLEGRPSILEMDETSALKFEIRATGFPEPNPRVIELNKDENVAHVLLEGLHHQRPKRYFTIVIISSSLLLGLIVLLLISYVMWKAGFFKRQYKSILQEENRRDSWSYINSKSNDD
T1 sequence (P26010 20-798): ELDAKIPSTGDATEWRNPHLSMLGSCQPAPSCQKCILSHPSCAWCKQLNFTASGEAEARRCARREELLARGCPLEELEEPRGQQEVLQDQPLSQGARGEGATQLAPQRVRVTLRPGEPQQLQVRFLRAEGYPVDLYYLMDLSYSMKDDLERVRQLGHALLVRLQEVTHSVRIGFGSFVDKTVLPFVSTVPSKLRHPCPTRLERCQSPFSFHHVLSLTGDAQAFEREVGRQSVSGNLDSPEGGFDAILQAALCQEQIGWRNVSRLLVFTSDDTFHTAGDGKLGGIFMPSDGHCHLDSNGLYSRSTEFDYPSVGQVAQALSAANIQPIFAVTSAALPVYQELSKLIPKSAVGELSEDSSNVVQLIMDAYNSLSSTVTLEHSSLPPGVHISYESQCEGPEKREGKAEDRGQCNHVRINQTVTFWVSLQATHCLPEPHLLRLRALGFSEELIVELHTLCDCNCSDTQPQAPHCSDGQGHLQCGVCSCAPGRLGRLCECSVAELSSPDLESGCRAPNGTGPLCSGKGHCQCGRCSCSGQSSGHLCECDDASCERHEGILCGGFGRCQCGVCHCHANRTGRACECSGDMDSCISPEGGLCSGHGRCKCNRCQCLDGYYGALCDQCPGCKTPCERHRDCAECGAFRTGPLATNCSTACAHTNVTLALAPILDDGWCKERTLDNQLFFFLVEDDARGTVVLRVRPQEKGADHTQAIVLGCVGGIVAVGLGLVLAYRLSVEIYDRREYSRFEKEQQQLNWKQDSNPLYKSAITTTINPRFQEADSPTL
Assay: Integrin α4β7-MAdCAM cell adhesion assay (RPMI8866 cells)
Format: cell-based
Settings: RPMI8866 cells adhering to MAdCAM; read-out: RPMI8866 Adhesion α4β7/MAdCAM IC50
Protocol: Integrin α4β7-MAdCAM Cell Adhesion Assay
RPMI8866 cells were resuspended at 10 million cells/ml in PBS containing […] and incubated at 37° C. for 30 min in a 50 ml tube. […] The plate was emptied by inverting and blotting on paper towels and washed manually twice with PBS. 100 μl PBS was then added to each well. […] To calculate the dose response, the fluorescence value of control wells not containing cells was subtracted from each test well.

Structure (SMILES)	IC50 [nM]
CC(C)C[C@@H]1NC(=O)c2ccc(-c3ccc(N4CCN(C(=O)c5cccc(-c6ccccc6C(=O)N6CCN(c7ccc(-c8ccc9cc8CNC(=O)[C@@H]8CCCN8[C@H](C(=O)NC(C)(C)C)[C@H](C)NC(=O)[C@H]([C@@H](C)O)NC(=O)[C@H](CC(=O)O)NC(=O)[C@H](CC(C)C)NC9=O)cc7)CC6)c5)CC4)cc3)c(c2)CNC(=O)[C@@H]2CCCN2[C@H](C(=O)NC(C)(C)C)[C@H](C)NC(=O)[C@H]([C@@H](C)O)NC(=O)[C@H](CC(=O)O)NC1=O [Compound 478]	34
CC(C)C[C@@H]1NC(=O)C[C@H](CCCCN)N(C)C(=O)[C@H](CCCCNC(=O)CCC(=O)NCCCC[C@@H]2NC(=O)[C@@H]3CCCN3[C@H](C(=O)NC(C)(C)C)[C@H](C)NC(=O)[C@H]([C@@H](C)O)NC(=O)[C@H](CC(=O)O)NC(=O)[C@H](CC(C)C)NC(=O)C[C@H](CCCCN)N(C)C2=O)NC(=O)[C@@H]2CCCN2[C@H](C(=O)NC(C)(C)C)[C@H](C)NC(=O)[C@H]([C@@H](C)O)NC(=O)[C@H](CC(=O)O)NC1=O [Compound 531]	23
CC(C)C[C@@H]1NC(=O)c2ccc(-c3ccc(N4CCN(C(=O)c5cccc(C(=O)N6CCN(c7ccc(-c8ccc9cc8CNC(=O)[C@@H]8CCCN8[C@H](C(=O)NC(C)(C)C)[C@H](C)NC(=O)[C@H]([C@@H](C)O)NC(=O)[C@H](CC(=O)O)NC(=O)[C@H](CC(C)C)NC9=O)cc7)CC6)n5)CC4)cc3)c(c2)CNC(=O)[C@@H]2CCCN2[C@H](C(=O)NC(C)(C)C)[C@H](C)NC(=O)[C@H]([C@@H](C)O)NC(=O)[C@H](CC(=O)O)NC1=O [Compound 472]	80
CC(C)C[C@@H]1NC(=O)c2ccc(-c3ccc(N4CCN(C(=O)CCCC(=O)N5CCN(c6ccc(-c7ccc8cc7CNC(=O)[C@@H]7CCCN7[C@H](C(=O)NC(C)(C)C)[C@H](C)NC(=O)[C@H]([C@@H](C)O)NC(=O)[C@H](CC(=O)O)NC(=O)[C@H](CC(C)C)NC8=O)cc6)CC5)CC4)cc3)c(c2)CNC(=O)[C@@H]2CCCN2[C@H](C(=O)NC(C)(C)C)[C@H](C)NC(=O)[C@H]([C@@H](C)O)NC(=O)[C@H](CC(=O)O)NC1=O [Compound 485]	30
CC(C)C[C@@H]1NC(=O)c2ccc(-c3ccc(N4CCN(C(=O)[C@H]5CCCC[C@H]5C(=O)N5CCN(c6ccc(-c7ccc8cc7CNC(=O)[C@@H]7CCCN7[C@H](C(=O)NC(C)(C)C)[C@H](C)NC(=O)[C@H]([C@@H](C)O)NC(=O)[C@H](CC(=O)O)NC(=O)[C@H](CC(C)C)NC8=O)cc6)CC5)CC4)cc3)c(c2)CNC(=O)[C@@H]2CCCN2[C@H](C(=O)NC(C)(C)C)[C@H](C)NC(=O)[C@H]([C@@H](C)O)NC(=O)[C@H](CC(=O)O)NC1=O [Compound 491]	23
CC(C)C[C@@H]1NC(=O)c2ccc(-c3ccc(N4CCN(C(=O)CCSCCC(=O)N5CCN(c6ccc(-c7ccc8cc7CNC(=O)[C@@H]7CCCN7[C@H](C(=O)NC(C)(C)C)[C@H](C)NC(=O)[C@H]([C@@H](C)O)NC(=O)[C@H](CC(=O)O)NC(=O)[C@H](CC(C)C)NC8=O)cc6)CC5)CC4)cc3)c(c2)CNC(=O)[C@@H]2CCCN2[C@H](C(=O)NC(C)(C)C)[C@H](C)NC(=O)[C@H]([C@@H](C)O)NC(=O)[C@H](CC(=O)O)NC1=O [Compound 473]	63
CC(C)C[C@@H]1NC(=O)c2ccc(-c3ccc(N4CCN(C(=O)c5ccc(C(=O)N6CCN(c7ccc(-c8ccc9cc8CNC(=O)[C@@H]8CCCN8[C@H](C(=O)NC(C)(C)C)[C@H](C)NC(=O)[C@H]([C@@H](C)O)NC(=O)[C@H](CC(=O)O)NC(=O)[C@H](CC(C)C)NC9=O)cc7)CC6)c6ccccc56)CC4)cc3)c(c2)CNC(=O)[C@@H]2CCCN2[C@H](C(=O)NC(C)(C)C)[C@H](C)NC(=O)[C@H]([C@@H](C)O)NC(=O)[C@H](CC(=O)O)NC1=O [Compound 463]	21
CC(C)C[C@@H]1NC(=O)c2ccc(-c3ccc(N4CCN(C(=O)C5(C(=O)N6CCN(c7ccc(-c8ccc9cc8CNC(=O)[C@@H]8CCCN8[C@H](C(=O)NC(C)(C)C)[C@H](C)NC(=O)[C@H]([C@@H](C)O)NC(=O)[C@H](CC(=O)O)NC(=O)[C@H](CC(C)C)NC9=O)cc7)CC6)CC5)CC4)cc3)c(c2)CNC(=O)[C@@H]2CCCN2[C@H](C(=O)NC(C)(C)C)[C@H](C)NC(=O)[C@H]([C@@H](C)O)NC(=O)[C@H](CC(=O)O)NC1=O [Compound 459]	33
CC(C)C[C@@H]1NC(=O)c2ccc(-c3ccc(N4CCN(C(=O)Cc5ccccc5C(=O)N5CCN(c6ccc(-c7ccc8cc7CNC(=O)[C@@H]7CCCN7[C@H](C(=O)NC(C)(C)C)[C@H](C)NC(=O)[C@H]([C@@H](C)O)NC(=O)[C@H](CC(=O)O)NC(=O)[C@H](CC(C)C)NC8=O)cc6)CC5)CC4)cc3)c(c2)CNC(=O)[C@@H]2CCCN2[C@H](C(=O)NC(C)(C)C)[C@H](C)NC(=O)[C@H]([C@@H](C)O)NC(=O)[C@H](CC(=O)O)NC1=O [Compound 496]	41
CC(C)C[C@@H]1NC(=O)c2ccc(-c3ccc(N4CCN(C(=O)CCCCCCCC(=O)N5CCN(c6ccc(-c7ccc8cc7CNC(=O)[C@@H]7CCCN7[C@H](C(=O)NC(C)(C)C)[C@H](C)NC(=O)[C@H]([C@@H](C)O)NC(=O)[C@H](CC(=O)O)NC(=O)[C@H](CC(C)C)NC8=O)cc6)CC5)CC4)cc3)c(c2)CNC(=O)[C@@H]2CCCN2[C@H](C(=O)NC(C)(C)C)[C@H](C)NC(=O)[C@H]([C@@H](C)O)NC(=O)[C@H](CC(=O)O)NC1=O [Compound 488]	34
CC(C)C[C@@H]1NC(=O)[C@H]2Cc3ccccc3CN2C(=O)[C@H](Cc2cccc(CNC(=O)CCCCCCCC(=O)NCc3cccc(C[C@@H]4NC(=O)[C@@H]5CCCN5[C@H](C(=O)NC(C)(C)C)[C@H](C)NC(=O)[C@H]([C@@H](C)O)NC(=O)[C@H](CC(=O)O)NC(=O)[C@H](CC(C)C)NC(=O)[C@H]5Cc6ccccc6CN5C4=O)c3)c2)NC(=O)[C@@H]2CCCN2[C@H](C(=O)NC(C)(C)C)[C@H](C)NC(=O)[C@H]([C@@H](C)O)NC(=O)[C@H](CC(=O)O)NC1=O [Compound 529]	47
CC(C)C[C@@H]1NC(=O)c2ccc(-c3ccc(N4CCN(C(=O)CCCCCCCCC(=O)N5CCN(c6ccc(-c7ccc8cc7CNC(=O)[C@@H]7CCCN7[C@H](C(=O)NC(C)(C)C)[C@H](C)NC(=O)[C@H]([C@@H](C)O)NC(=O)[C@H](CC(=O)O)NC(=O)[C@H](CC(C)C)NC8=O)cc6)CC5)CC4)cc3)c(c2)CNC(=O)[C@@H]2CCCN2[C@H](C(=O)NC(C)(C)C)[C@H](C)NC(=O)[C@H]([C@@H](C)O)NC(=O)[C@H](CC(=O)O)NC1=O [Compound 489]	40
CC(C)C[C@@H]1NC(=O)[C@H]2Cc3ccccc3CN2C(=O)[C@H](Cc2cccc(CNC(=O)CCCCCCC(=O)NCc3cccc(C[C@@H]4NC(=O)[C@@H]5CCCN5[C@H](C(=O)NC(C)(C)C)[C@H](C)NC(=O)[C@H]([C@@H](C)O)NC(=O)[C@H](CC(=O)O)NC(=O)[C@H](CC(C)C)NC(=O)[C@H]5Cc6ccccc6CN5C4=O)c3)c2)NC(=O)[C@@H]2CCCN2[C@H](C(=O)NC(C)(C)C)[C@H](C)NC(=O)[C@H]([C@@H](C)O)NC(=O)[C@H](CC(=O)O)NC1=O [Compound 528]	47

Reference: patent US11713338B2, “Cyclic peptides multimers targeting α-4-β-7 integrin” (priority 2016, dated 2023)
